How the values were obtained:
Format in all cases: functional
IGROV-1 [1] = experiment: Anticancer activity against Homo sapiens (human) IGROV1 cells assessed as cell growth promotion at 10 uM after 48 hr by SRB assay
UACC-62 [2] = experiment: Anticancer activity against Homo sapiens (human) UACC62 cells assessed as cell growth promotion at 10 uM after 48 hr by SRB assay
Hs-578T [3] = experiment: Anticancer activity against Homo sapiens (human) Hs 578T cells assessed as cell growth promotion at 10 uM after 48 hr by SRB assay
PC-3 = experiment: Anticancer activity against Homo sapiens (human) PC3 cells assessed as cell growth promotion at 10 uM after 48 hr by SRB assay
TK-10 = experiment: Anticancer activity against Homo sapiens (human) TK10 cells assessed as cell growth promotion at 10 uM after 48 hr by SRB assay
ACHN = experiment: Anticancer activity against Homo sapiens (human) ACHN cells assessed as cell growth promotion at 10 uM after 48 hr by SRB assay
SK-OV-3 = experiment: Anticancer activity against Homo sapiens (human) SKOV3 cells assessed as cell growth promotion at 10 uM after 48 hr by SRB assay
NCI/ADR-RES [4] = experiment: Anticancer activity against Homo sapiens (human) NCI/ADR-RES cells assessed as cell growth promotion at 10 uM after 48 hr by SRB assay
SF-268 = experiment: Anticancer activity against Homo sapiens (human) SF268 cells after 48 hr by SRB assay; details: SF-268, 48 h
SW-620 = experiment: Anticancer activity against Homo sapiens (human) SW620 cells after 48 hr by SRB assay; details: SW-620, 48 h
KM12 = experiment: Anticancer activity against Homo sapiens (human) KM12 cells after 48 hr by SRB assay; details: KM12, 48 h
NCI-H522 [5] = experiment: Anticancer activity against Homo sapiens (human) NCI-H522 cells after 48 hr by SRB assay; details: NCI-H522, 48 h
NCI-H322M [6] = experiment: Anticancer activity against Homo sapiens (human) NCI-H322M cells after 48 hr by SRB assay; details: for CC50: read-out: LC50 (the source's name)
EKVX = experiment: Anticancer activity against Homo sapiens (human) EKVX cells after 48 hr by SRB assay; details: for CC50: read-out: LC50 (the source's name)
HCT-15 = experiment: Anticancer activity against Homo sapiens (human) HCT15 cells assessed as cell growth promotion at 10 uM after 48 hr by SRB assay
HCT-116 = experiment: Anticancer activity against Homo sapiens (human) HCT116 cells assessed as cell growth promotion at 10 uM after 48 hr by SRB assay
COLO 205 = experiment: Anticancer activity against Homo sapiens (human) COLO205 cells assessed as cell growth promotion at 10 uM after 48 hr by SRB assay
NCI-H522 [7] = experiment: Anticancer activity against Homo sapiens (human) NCI-H522 cells assessed as cell growth promotion at 10 uM after 48 hr by SRB assay
NCI-H322M [8] = experiment: Anticancer activity against Homo sapiens (human) NCI-H322M cells assessed as cell growth promotion at 10 uM after 48 hr by SRB assay
NCI-H226 = experiment: Anticancer activity against Homo sapiens (human) NCI-H226 cells assessed as cell growth promotion at 10 uM after 48 hr by SRB assay
SR = experiment: Anticancer activity against Homo sapiens (human) SR cells assessed as cell growth promotion at 10 uM after 48 hr by SRB assay
RPMI-8226 = experiment: Anticancer activity against Homo sapiens (human) RPMI8226 cells assessed as cell growth promotion at 10 uM after 48 hr by SRB assay
MOLT-4 = experiment: Anticancer activity against Homo sapiens (human) MOLT4 cells assessed as cell growth promotion at 10 uM after 48 hr by SRB assay
SF-539 = experiment: Anticancer activity against Homo sapiens (human) SF539 cells assessed as cell growth promotion at 10 uM after 48 hr by SRB assay
Hs-578T [9] = experiment: Anticancer activity against Homo sapiens (human) Hs 578T cells after 48 hr by SRB assay; details: for CC50: read-out: LC50 (the source's name)
MDA-MB-231 = experiment: Anticancer activity against Homo sapiens (human) MDA-MB-231/ATCC cells after 48 hr by SRB assay; details: MDA-MB-231, 48 h; for CC50: read-out: LC50 (the source's name)
DU-145 = experiment: Anticancer activity against Homo sapiens (human) DU145 cells after 48 hr by SRB assay; details: DU-145, 48 h
NCI/ADR-RES [10] = experiment: Anticancer activity against Homo sapiens (human) NCI/ADR-RES cells after 48 hr by SRB assay
OVCAR-8 = experiment: Anticancer activity against Homo sapiens (human) OVCAR8 cells after 48 hr by SRB assay; details: OVCAR-8, 48 h; for CC50: read-out: LC50 (the source's name)
IGROV-1 [11] = experiment: Anticancer activity against Homo sapiens (human) IGROV1 cells after 48 hr by SRB assay; details: IGROV-1, 48 h
UACC-62 [12] = experiment: Anticancer activity against Homo sapiens (human) UACC62 cells after 48 hr by SRB assay; details: UACC-62, 48 h
MDA-MB-435 = experiment: Anticancer activity against Homo sapiens (human) MDA-MB-435 cells after 48 hr by SRB assay; details: MDA-MB-435, 48 h
SK-MEL-2 = experiment: Anticancer activity against Homo sapiens (human) SK-MEL-2 cells after 48 hr by SRB assay; details: SK-MEL-2, 48 h
UO-31 = experiment: Anticancer activity against Homo sapiens (human) UO31 cells after 48 hr by SRB assay; details: UO-31, 48 h; for CC50: read-out: LC50 (the source's name)
RXF 393 = experiment: Anticancer activity against Homo sapiens (human) RXF393 cells assessed as cell growth promotion at 10 uM after 48 hr by SRB assay

COc1ccc(Nn2c(SCC(=O)Nc3nc(-c4ccc(Cl)cc4)cs3)nc(C)c2C)cc1
Activity (IGROV-1 [1]): 70.85% | Activity (UACC-62 [2]): 49.53% | Activity (Hs-578T [3]): 86.14% | Activity (PC-3): 35.69% | Activity (TK-10): 68.5% | Activity (ACHN): 52.04% | Activity (SK-OV-3): 81.45% | Activity (NCI/ADR-RES [4]): 23.11% | GI50 (SF-268): 2.81 µM | LC50 (SF-268): > 100 µM | TGI (SF-268): > 100 µM | GI50 (SW-620): 4.78 µM | LC50 (concentration killing 50% of cells) (SW-620): > 100 µM | TGI (SW-620): > 100 µM | GI50 (KM12): 1.84 µM | LC50 (concentration killing 50% of cells) (KM12): > 100 µM | TGI (KM12): 11.1 µM | GI50 (NCI-H522 [5]): 5.05 µM | LC50 (50% lethal concentration) (NCI-H522 [5]): > 100 µM | TGI (NCI-H522 [5]): > 100 µM | GI50 (NCI-H322M [6]): > 100 µM | TGI (NCI-H322M [6]): > 100 µM | CC50 (NCI-H322M [6]): > 100 µM | GI50 (EKVX): 1.92 µM | TGI (EKVX): > 100 µM | CC50 (EKVX): > 100 µM | Activity (HCT-15): 59.76% | Activity (HCT-116): 27.81% | Activity (COLO 205): 79.56% | Activity (NCI-H522 [7]): 66.22% | Activity (NCI-H322M [8]): 111.9% | Activity (NCI-H226): 60.46% | Activity (SR): 40.3% | Activity (RPMI-8226): 35.7% | Activity (MOLT-4): 36.1% | Activity (SF-539): 79.14% | GI50 (Hs-578T [9]): 11.8 µM | TGI (Hs-578T [9]): > 100 µM | CC50 (Hs-578T [9]): > 100 µM | GI50 (MDA-MB-231): 8.37 µM | TGI (MDA-MB-231): > 100 µM | CC50 (MDA-MB-231): > 100 µM | GI50 (DU-145): 4.06 µM | LC50 (concentration killing 50% of cells) (DU-145): > 100 µM | TGI (DU-145): > 100 µM | GI50 (NCI/ADR-RES [10]): 2.89 µM | LC50 (NCI/ADR-RES [10]): > 100 µM | TGI (NCI/ADR-RES [10]): > 100 µM | GI50 (OVCAR-8): 4.82 µM | TGI (OVCAR-8): > 100 µM | CC50 (OVCAR-8): > 100 µM | GI50 (IGROV-1 [11]): 5.67 µM | LC50 (concentration killing 50% of cells) (IGROV-1 [11]): > 100 µM | TGI (IGROV-1 [11]): > 100 µM | GI50 (UACC-62 [12]): 3.62 µM | LC50 (UACC-62 [12]): > 100 µM | TGI (UACC-62 [12]): > 100 µM | GI50 (MDA-MB-435): 3.22 µM | LC50 (concentration killing 50% of cells) (MDA-MB-435): > 100 µM | TGI (MDA-MB-435): > 100 µM | GI50 (SK-MEL-2): 15.7 µM | LC50 (concentration killing 50% of cells) (SK-MEL-2): > 100 µM | TGI (SK-MEL-2): 66.8 µM | GI50 (UO-31): 2.62 µM | TGI (UO-31): > 100 µM | CC50 (UO-31): > 100 µM

Cc1nc(SCC(=O)Nc2nccs2)n(Nc2ccc(Cl)cc2)c1C
Activity (IGROV-1 [1]): 126.1% | Activity (UACC-62 [2]): 104.39% | Activity (Hs-578T [3]): 121.05% | Activity (PC-3): 103.63% | Activity (TK-10): 120.55% | Activity (RXF 393): 91.41% | Activity (ACHN): 104.69% | Activity (SK-OV-3): 102.45% | Activity (NCI/ADR-RES [4]): 100.18% | Activity (HCT-15): 102.77% | Activity (HCT-116): 94.47% | Activity (COLO 205): 121.19% | Activity (NCI-H522 [7]): 111.97% | Activity (NCI-H322M [8]): 131.8% | Activity (NCI-H226): 93.51% | Activity (SR): 120.95% | Activity (RPMI-8226): 104.54% | Activity (MOLT-4): 117.57% | Activity (SF-539): 90.1%

Cc1nc(SCC(=O)Nc2nc(-c3ccc(Cl)cc3)cs2)n(Nc2ccccc2)c1C
Activity (IGROV-1 [1]): 68.44% | Activity (UACC-62 [2]): 34.83% | Activity (Hs-578T [3]): 70.58% | Activity (PC-3): 59.13% | Activity (TK-10): 56.83% | Activity (RXF 393): 72.14% | Activity (ACHN): 49.37% | Activity (SK-OV-3): 68.56% | Activity (NCI/ADR-RES [4]): 20.41% | GI50 (SF-268): 4.8 µM | LC50 (SF-268): 58.8 µM | TGI (SF-268): 20.1 µM | GI50 (SW-620): 5.5 µM | LC50 (concentration killing 50% of cells) (SW-620): 74.6 µM | TGI (SW-620): 22.9 µM | GI50 (KM12): 2.95 µM | LC50 (concentration killing 50% of cells) (KM12): 41.4 µM | TGI (KM12): 14 µM | GI50 (NCI-H522 [5]): 2.54 µM | LC50 (50% lethal concentration) (NCI-H522 [5]): 66.5 µM | TGI (NCI-H522 [5]): 13.7 µM | GI50 (NCI-H322M [6]): 4.17 µM | TGI (NCI-H322M [6]): 22.9 µM | CC50 (NCI-H322M [6]): > 100 µM | GI50 (EKVX): 1.84 µM | TGI (EKVX): 12.2 µM | CC50 (EKVX): 94.1 µM | Activity (HCT-15): 57.63% | Activity (HCT-116): 29.45% | Activity (COLO 205): 65.21% | Activity (NCI-H522 [7]): 47.28% | Activity (NCI-H322M [8]): 70.81% | Activity (NCI-H226): 59.84% | Activity (SR): 12.66% | Activity (MOLT-4): 41.02% | Activity (SF-539): 35.42% | GI50 (Hs-578T [9]): 3.42 µM | TGI (Hs-578T [9]): 21.6 µM | CC50 (Hs-578T [9]): > 100 µM | GI50 (MDA-MB-231): 3.01 µM | TGI (MDA-MB-231): 15.2 µM | CC50 (MDA-MB-231): 57.8 µM | GI50 (DU-145): 5.64 µM | LC50 (concentration killing 50% of cells) (DU-145): 45.4 µM | TGI (DU-145): 18.7 µM | GI50 (NCI/ADR-RES [10]): 2.6 µM | LC50 (NCI/ADR-RES [10]): 69.9 µM | TGI (NCI/ADR-RES [10]): 7.18 µM | GI50 (OVCAR-8): 2.71 µM | TGI (OVCAR-8): 7.73 µM | CC50 (OVCAR-8): 38.9 µM | GI50 (IGROV-1 [11]): 3.36 µM | LC50 (concentration killing 50% of cells) (IGROV-1 [11]): > 100 µM | TGI (IGROV-1 [11]): 20.6 µM | GI50 (UACC-62 [12]): 3.09 µM | LC50 (UACC-62 [12]): 50.3 µM | TGI (UACC-62 [12]): 16.1 µM | GI50 (MDA-MB-435): 3.25 µM | LC50 (concentration killing 50% of cells) (MDA-MB-435): > 100 µM | TGI (MDA-MB-435): 21.8 µM | GI50 (SK-MEL-2): 10.1 µM | LC50 (concentration killing 50% of cells) (SK-MEL-2): 75.5 µM | TGI (SK-MEL-2): 27.6 µM | GI50 (UO-31): 3.59 µM | TGI (UO-31): 37.7 µM | CC50 (UO-31): > 100 µM
